This note sets out measurements from patent publication EP0993439B1, “4-BROMO OR 4-IODO PHENYLAMINO BENZHYDROXAMIC ACID DERIVATIVES AND THEIR USE AS MEK INHIBITORS” (priority 1997, dated 1999).

Each structure is given as a SMILES string.

For series [1], the target named is T1, MEK (Homo sapiens, UniProt Q02750). In words: Cascade assay for inhibitors of the MAP kinase pathway (32P incorporation into MBP with GST-MEK and GST-MAPK). It counts as biochemical. The settings on record: read-out: % Inhibition In Vitro.
Series [2] deals with T1, MEK. The series is described as above. The conditions noted are these: read-out: % Inhibition In Vitro. It counts as biochemical. The method, then:
Incorporation of ^32P into myelin basic protein (MBP) was assayed in the presence of a glutathione S-transferase fusion protein containing p44MAP kinase (GST-MAPK) and a glutathione S-transferase fusion protein containing p45MEK (GST-MEK). The assay solution contained 20 mM HEPES, pH 7.4, 10 mM MgCl2, 1 mM MnCl2, 1 mM EGTA, 50 µM [γ-^32P]ATP, 10 µg GST-MEK, 0.5 µg GST-MAPK and 40 µg MBP in a final volume of 100 µL. […] Compounds were assessed at 10 µM for ability to inhibit incorporation of ^32P.
To ascertain whether compounds were inhibiting GST-MEK or GST MAPK, two additional protocols were employed. In the first protocol, compounds were added to tubes containing GST-MEK, followed by addition of GST-MAPK, MBP and [γ-^32P]ATP. In the second protocol, compounds were added to tubes containing both GST-MEK and GST-MAPK, followed by MBP and [γ-^32P]ATP.
The source holds these as a separate data set.

In series [3] the test system is murine colon tumor, C26/clone 10. Kind of series: Murine colon tumor C26/clone 10 implanted subcutaneously in mice, compound given IP or PO on Days 1 through 14. The settings on record: for Change in Body Weight (grams): Days 1 through 14. It counts as in vivo, Male CD2F1 mice. The method, then:
Male CD2F1 mice (NCI: Charles River, Kingston) were implanted subcutaneously with tumor fragments (approximately 30 mg) in the region of the right axilla on Day 0. […] The vehicle for the test compound, and for control animals, was 10% EtOH/10% Cremophor-EL (Sigma)/80% H2O, pH 5.0. Tumor volumes were recorded three times per week by measuring the length and width of the individual tumors and calculating mass in milligrams according to the formula (a × b^2)/2, where a and b are the length and width of the tumor. Percent treated/control (T/C) was calculated based on the ratio of the median tumor volume of the treated tumors compared with the median tumor volume of control animals on specified measurement days.

T1 sequence (Q02750 whole entry): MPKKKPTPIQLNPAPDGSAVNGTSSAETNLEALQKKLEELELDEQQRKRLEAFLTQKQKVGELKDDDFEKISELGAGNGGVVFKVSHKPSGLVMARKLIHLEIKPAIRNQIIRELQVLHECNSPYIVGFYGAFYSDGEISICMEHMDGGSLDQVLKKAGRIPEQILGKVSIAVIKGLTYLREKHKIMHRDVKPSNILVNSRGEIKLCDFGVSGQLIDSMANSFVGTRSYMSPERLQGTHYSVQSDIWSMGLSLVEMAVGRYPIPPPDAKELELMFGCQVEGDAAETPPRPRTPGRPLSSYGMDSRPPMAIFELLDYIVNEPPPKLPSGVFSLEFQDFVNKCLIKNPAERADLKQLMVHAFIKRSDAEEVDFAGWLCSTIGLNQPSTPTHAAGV

With `Cc1cccc(Nc2ccccc2C(=O)NO)c1C` [the 9th table: R6=H, R7=H], on MEK [1], the inhibition at 1 µM came to 6%. Moreover, the inhibition at 10 µM on MEK [2] was -4%.

`Cc1ccc(Cl)c(Nc2ccccc2C(=O)NO)c1Cl` [the 8th table: R6=H, R7=H]: the inhibition at 1 µM at MEK [1] is 9%. Also, on MEK [2], the inhibition at 10 µM is -3%.

With `Cc1ccc(Cl)c(Nc2ccccc2C(=O)N(O)Cc2ccccc2)c1Cl` [the 8th table: R6=CH2-Ph, R7=H], the inhibition at 1 µM on MEK [1] was -4%. For the same compound, the inhibition at 10 µM at MEK [2] came out at 18%.

Regarding `Cc1cccc(Nc2ccccc2C(=O)N(C)O)c1C` [the 9th table: R6=CH3, R7=H], the inhibition at 1 µM at MEK [1] came out at 13%. Further, the inhibition at 10 µM at MEK [2] is 19%.

For the compound `Cc1cccc(Nc2ccccc2C(=O)N(O)C(C)C)c1C` [the 9th table: R6=iPr, R7=H], at MEK [1], the inhibition at 1 µM is -11%. On MEK [2], the inhibition at 10 µM was determined as 7%.

In the case of `CONC(=O)c1ccccc1Nc1cccc(C)c1C` [the 9th table: R6=H, R7=CH3], the inhibition at 1 µM at MEK [1] is -6%. The inhibition at 10 µM at MEK [2] was 12%.

For `O=C(NOCC1CC1)c1ccc(F)c(F)c1Nc1ccc(I)cc1Cl` [Example 95, 3,4-Difluoro-2-(2-chloro-4-iodo-phenylamino)-N-cyclopropylmethoxy-benzamide], the “% T/C (Day 15)” value in series [3] (IP, 48 mg/kg/day) was 41%; in series [3] (IP, 77 mg/kg/day) it was 2%; in series [3] (IP, 124 mg/kg/day) it was 4%; in series [3] (IP, 200 mg/kg/day) it was 0%. The “Change in Body Weight (grams)” value in series [3] (IP, 48 mg/kg/day) was “+3 grams”; in series [3] (IP, 77 mg/kg/day), “+2 grams”; in series [3] (IP, 124 mg/kg/day), “+3 grams”; in series [3] (IP, 200 mg/kg/day), “+2 grams”; in series [3] (PO, 71 mg/kg/day) it was “+2 grams”; in series [3] (PO, 115 mg/kg/day), “+2 grams”. For the same compound, the “Change in Body Weight (grams)” value is on record as “+2 grams” in series [3] (PO, 186 mg/kg/day) and “+2 grams” in series [3] (PO, 300 mg/kg/day). Moreover, the “% T/C (Day 17)” value in series [3] (PO, 71 mg/kg/day) came to 36%; in series [3] (PO, 115 mg/kg/day), 21%; in series [3] (PO, 186 mg/kg/day), 25%; in series [3] (PO, 300 mg/kg/day), 17%.

On to `CONC(=O)c1ccccc1Nc1c(Cl)ccc(C)c1Cl` [the 8th table: R6=H, R7=CH3], for which the inhibition at 1 µM on MEK [1] is -8%. In addition, at MEK [2], the inhibition at 10 µM stood at 8%.

On to `Cc1ccc(Cl)c(Nc2ccccc2C(=O)N(O)C(C)C)c1Cl` [the 8th table: R6=iPr, R7=H], for which the inhibition at 1 µM at MEK [1] worked out at 17%. Also, the inhibition at 10 µM at MEK [2] amounted to 9%.

Turning to `Cc1ccc(Cl)c(Nc2ccccc2C(=O)N(C)O)c1Cl` [the 8th table: R6=CH3, R7=H], the inhibition at 1 µM on MEK [1] was -5%. Besides, the inhibition at 10 µM at MEK [2] was found to be 19%.

What is called inhibition is the relative decrease from the control value, in per cent.
